Patent publication US11230526B1, “Cylcoalkenyl derivatives useful as agonists of the GPR120 and/or GPR40 receptors” (Janssen Pharmaceutica NV, priority 2018, dated 2022)

What was measured:
human GPR40 = molecular target: T1, human GPR40 (Homo sapiens, UniProt O14842); experiment: GPR40 calcium flux assay, human GPR40; assay type: cell-based; details: HEK293 cells stably expressing GPR40; table does not say human or rat
T1 construct: expressed in transfected cells
Procedure, shortened: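 Cells preincubated 1 h at 37° C. in HBSS, 20 mM HEPES, 0.1% BSA, then Fluo 8 calcium dye 30 min at 37° C. and 15 min at room temperature.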

Human GPR120 short form = molecular target: T2, Human GPR120 short form (Homo sapiens, UniProt Q5NUL3); experiment: Human GPR120 calcium flux assay, Procedure Calcium A (2500 cells/well); assay type: cell-based
T2 construct: expressed in transfected cells
T2 sequence (Q5NUL3 1-361): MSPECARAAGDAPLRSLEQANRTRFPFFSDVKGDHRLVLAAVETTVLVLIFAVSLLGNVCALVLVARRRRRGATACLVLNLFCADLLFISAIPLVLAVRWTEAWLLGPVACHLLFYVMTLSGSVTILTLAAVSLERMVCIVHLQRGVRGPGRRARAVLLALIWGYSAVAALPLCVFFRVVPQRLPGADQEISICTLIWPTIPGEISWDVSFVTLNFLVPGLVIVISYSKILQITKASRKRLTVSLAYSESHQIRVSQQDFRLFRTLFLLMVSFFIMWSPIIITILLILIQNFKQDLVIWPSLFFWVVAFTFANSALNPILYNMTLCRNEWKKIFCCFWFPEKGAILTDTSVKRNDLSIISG
Procedure, shortened: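 HEK293 cells stably expressing human GPR120 short isoform (NM_001195755.1), 2500 cells/well, serum-starved 1 h at 37 °C and loaded with Fluo-4 NW plus probenecid. FLIPR fluorescence read for 300 s after compound addition; response = Fmax−Fmin. EC50 from four-parameter concentration–response fit.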

T1 sequence (O14842 whole entry): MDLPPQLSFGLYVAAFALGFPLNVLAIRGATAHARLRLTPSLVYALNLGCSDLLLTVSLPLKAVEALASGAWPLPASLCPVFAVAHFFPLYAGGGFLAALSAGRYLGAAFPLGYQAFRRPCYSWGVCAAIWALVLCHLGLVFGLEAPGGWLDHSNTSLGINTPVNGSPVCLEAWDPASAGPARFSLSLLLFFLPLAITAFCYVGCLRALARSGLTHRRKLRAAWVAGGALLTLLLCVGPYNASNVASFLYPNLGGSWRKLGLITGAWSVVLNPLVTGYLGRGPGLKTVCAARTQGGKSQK

SMILES | EC50 (human GPR40) | EC50 (Human GPR120 short form)
Cc1ccc(C2=C(COc3c(F)cc(CCC(=O)O)cc3F)CCC2)cc1[N+](=O)[O-] [Compound 109, 3-(3,5-difluoro-4-((2-(4-methyl-3-nitrophenyl)cyclopent-1-en-1-yl)methoxy)phenyl)Propanoic Acid] | > 5 µM | 959 nM
Cc1c(CCC(=O)O)ccc(OCC2=C(c3ccccc3Br)CCC2)c1C [Compound 111, 3-[4-[[2-(2-bromophenyl)cyclopenten-1-yl]methoxy]-2,3-dimethyl-phenyl]Propanoic Acid] | > 5 µM | 777 nM
O=C(O)CCc1c(F)c(F)c(OCC2=C(c3ccc(Cl)cc3)CCC2)c(F)c1F [Compound 122, 3-[4-[[2-(4-chlorophenyl)cyclopenten-1-yl]methoxy]-2,3,5,6-tetrafluoro-phenyl]Propanoic Acid] | > 5 µM | 453 nM
Cc1c(CCC(=O)O)ccc(OCC2=C(c3ccccc3F)CCC2)c1C [Compound 124, 3-[4-[[2-(2-fluorophenyl)cyclopenten-1-yl]methoxy]-2,3-dimethyl-phenyl]Propanoic Acid] | > 5 µM | 308 nM
Cc1cc(OCC2=C(c3ccc(Cl)cc3)CCC2)ccc1CCC(=O)O [Compound 131, 3-[4-[[2-(4-chlorophenyl)cyclopenten-1-yl]methoxy]-2-methyl-phenyl]Propanoic Acid] | 1.99 µM | 533 nM
Cc1ccccc1C1=C(COc2ccc(CCC(=O)O)c(C)c2C)CCC1 [Compound 132, 3-[2,3-dimethyl-4-[[2-(o-tolyl)cyclopenten-1-yl]methoxy]phenyl]Propanoic Acid] | > 5 µM | 1090 nM
Cc1c(CCC(=O)O)ccc(OCC2=C(c3ccc(Cl)cc3Cl)CCC2)c1C [Compound 133, 3-[4-[[2-(2,4-dichlorophenyl)cyclopenten-1-yl]methoxy]-2,3-dimethyl-phenyl]Propanoic Acid] | > 5 µM | 682 nM
Cc1ccc(C2=C(COc3ccc(CCC(=O)O)c(C)c3C)CCC2)cc1N [Compound 134, 3-(4-((2-(3-amino-4-methylphenyl)cyclopent-1-en-1-yl)methoxy)-2,3-dimethylphenyl)Propanoic Acid] | > 5 µM | 2000 nM
COc1cccc(C2=C(COc3ccc(CCC(=O)O)c(C)c3C)CCC2)c1 [Compound 141, 3-[4-[[2-(3-methoxyphenyl)cyclopenten-1-yl]methoxy]-2,3-dimethyl-phenyl]Propanoic Acid] | > 5 µM | 1060 nM
Cc1c(CCC(=O)O)ccc(OCC2=C(c3ccccn3)CCC2)c1C [Compound 147, 3-[2,3-dimethyl-4-[[2-(2-pyridyl)cyclopenten-1-yl]methoxy]phenyl]Propanoic Acid] | > 5 µM | 1010 nM
O=C(O)CCc1ccc(OCC2=C(c3ccc(Cl)cc3)CCC2)c(F)c1 [Compound 149, 3-[4-[[2-(4-chlorophenyl)cyclopenten-1-yl]methoxy]-3-fluoro-phenyl]Propanoic Acid] | > 10 µM | 128 nM
O=C(O)CCc1ccc(OCC2=C(c3ccc(Cl)cc3)CCC2)cc1 [Compound 153, 3-[4-[[2-(4-chlorophenyl)cyclopenten-1-yl]methoxy]phenyl]Propanoic Acid] | 2.95 µM | 319 nM
Cc1c(CCC(=O)O)ccc(OCC2=C(c3ccc(Cl)nc3)CCC2)c1C [Compound 158, 3-(4-((2-(6-chloropyridin-3-yl)cyclopent-1-en-1-yl)methoxy)-2,3-dimethylphenyl)Propanoic Acid] | > 5 µM | 234 nM
Cc1cc(CCC(=O)O)ccc1OCC1=C(c2ccc(Cl)c(F)c2)CCC1 [Compound 159, 3-(4-((2-(4-chloro-3-fluorophenyl)cyclopent-1-en-1-yl)methoxy)-3-methylphenyl)Propanoic Acid] | > 5 µM | 44 nM
Cc1cc(CCC(=O)O)ccc1OCC1=C(c2ccc(Cl)cc2)CCC(F)(F)C1 [Compound 467, 3-(4-((4′-chloro-4,4-difluoro-3,4,5,6-tetrahydro-[1,1′-biphenyl]-2-yl)methoxy)-3-methylphenyl)Propanoic Acid] | > 5 µM | 199 nM
Cc1c(CCC(=O)O)ccc(OCC2=C(c3ccc(Cl)cc3)CCC(F)(F)C2)c1C [Compound 468, 3-[4-[[2-(4-chlorophenyl)-5,5-difluoro-cyclohexen-1-yl]methoxy]-2,3-dimethyl-phenyl]Propanoic Acid] | > 5 µM | 261 nM

The remaining lines, values ahead:

EC50 (human GPR40) | EC50 (Human GPR120 short form) | SMILES
> 5 µM | 406 nM | Cc1c(CCC(=O)O)ccc(OCC2=C(c3ccccc3)CCCC2)c1C [Compound 472, 3-[2,3-dimethyl-4-[(2-phenylcyclohexen-1-yl)methoxy]phenyl]Propanoic Acid]
> 5 µM | 428 nM | Cc1c(CCC(=O)O)ccc(OCC2=C(c3ccc(Cl)cc3)CCCC2)c1C [Compound 474, 3-[4-[[2-(4-chlorophenyl)cyclohexen-1-yl]methoxy]-2,3-dimethyl-phenyl]Propanoic Acid]
> 5 µM | 958 nM | O=C(O)CCc1c(F)c(F)c(OCC2=C(c3ccc(Cl)cc3)CCCC2)c(F)c1F [Compound 479, 3-[4-[[2-(4-chlorophenyl)cyclohexen-1-yl]methoxy]-2,3,5,6-tetrafluoro-phenyl]Propanoic Acid]
3.53 µM | 255 nM | Cc1cc(CCC(=O)O)ccc1OCC1=C(c2ccc(Cl)cc2)CCCC1 [Compound 483, 3-[4-[[2-(4-chlorophenyl)cyclohexen-1-yl]methoxy]-3-methyl-phenyl]Propanoic Acid]
> 5 µM | 123 nM | Cc1ccc(C2=C(COc3c(F)cc(CCC(=O)O)cc3F)CCCC2)cc1F [Compound 493, 3-[3,5-difluoro-4-[[2-(3-fluoro-4-methyl-phenyl)cyclohexen-1-yl]methoxy]phenyl]Propanoic Acid]
> 5 µM | 117 nM | Cc1ccc(C2=C(COc3ccc(CCC(=O)O)c(F)c3F)CCCC2)cc1F [Compound 494, 3-[2,3-difluoro-4-[[2-(3-fluoro-4-methyl-phenyl)cyclohexen-1-yl]methoxy]phenyl]Propanoic Acid]
> 5 µM | 297 nM | Cc1ccc(C2=C(COc3ccc(CCC(=O)O)c(C)c3C)CCCC2)cc1F [Compound 496, 3-[4-[[2-(3-fluoro-4-methyl-phenyl)cyclohexen-1-yl]methoxy]-2,3-dimethyl-phenyl]Propanoic Acid]
> 5 µM | 493 nM | O=C(O)CCc1ccc(OCC2=C(c3ccc(Cl)cc3)CCC(F)(F)C2)c(F)c1F [Compound 503, 3-[4-[[2-(4-chlorophenyl)-5,5-difluoro-cyclohexen-1-yl]methoxy]-2,3-difluoro-phenyl]Propanoic Acid]
> 10 µM | 963 nM | Cc1c(CCC(=O)O)ccc(OCC2=C(c3cccc(Cl)c3)CCCC2)c1C [Compound 509, 3-[4-[[2-(3-chlorophenyl)cyclohexen-1-yl]methoxy]-2,3-dimethyl-phenyl]Propanoic Acid]
> 10 µM | 561 nM | O=C(O)CCc1cc(F)c(OCC2=C(c3ccc(Cl)cc3)CCCC2)c(F)c1 [Compound 510, 3-[4-[[2-(4-chlorophenyl)cyclohexen-1-yl]methoxy]-3,5-difluoro-phenyl]Propanoic Acid]
> 10 µM | 572 nM | O=C(O)CCc1ccc(OCC2=C(c3ccc(Cl)cc3)CCCC2)c(F)c1 [Compound 511, 3-[4-[[2-(4-chlorophenyl)cyclohexen-1-yl]methoxy]-3-fluoro-phenyl]Propanoic Acid]
> 5 µM | 808 nM | Cc1c(CCC(=O)O)ccc(OCC2=C(c3ccc(N(C)C)cc3)CCCC2)c1C [Compound 512, 3-[4-[[2-(4-dimethylaminophenyl)cyclohexen-1-yl]methoxy]-2,3-dimethyl-phenyl]Propanoic Acid]
> 5 µM | 331 nM | O=C(O)CCc1ccc(OCC2=C(c3ccc(Cl)cc3)CCCC2)c(F)c1F [Compound 513, 3-[4-[[2-(4-chlorophenyl)cyclohexen-1-yl]methoxy]-2,3-difluoro-phenyl]Propanoic Acid]
> 5 µM | 340 nM | O=C(O)CCc1ccc(OCC2=C(c3ccc(Cl)cc3)CCCC2)c2c1CCC2 [Compound 514, 3-[7-[[2-(4-chlorophenyl)cyclohexen-1-yl]methoxy]indan-4-yl]Propanoic Acid]
